Laboratory results from PubChem BioAssay AID192 (DTP/NCI, 2004).
Toxic doses and inconclusive results are not listed.

Tested on: BDF1 mice, B16 melanoma ip, median survival T/C
Assay: NCI In Vivo Anticancer Drug Screen. Data for tumor model B16 Melanoma (intraperitoneal) in B6D2F1 (BDF1) mice
Conditions: endpoint: median survival time, higher = longer survival
Experimental: The antitumor activity of compounds was measured in mice bearing transplantable tumors. Survival or tumor size were measured and the results are expressed as the measurement made in the treated group (T) divided by the measurement made in the vehicle treated control group (C). The tumor model used in this assay is B16 Melanoma (intraperitoneal) in B6D2F1 (BDF1) mice

[1] = dose: 1.56 mg/kg/injection, schedule: Q01DX009 (ip), vehicle: saline with Tween-80
[2] = dose: 3.13 mg/kg/injection, schedule: Q01DX009 (ip), vehicle: saline with Tween-80
[3] = dose: 6.25 mg/kg/injection, schedule: Q01DX009 (ip), vehicle: saline with Tween-80
[4] = dose: 12.5 mg/kg/injection, schedule: Q01DX009 (ip), vehicle: saline with Tween-80
[5] = dose: 50.0 mg/kg/injection, schedule: Q01DX009 (ip), vehicle: saline with Tween-80
[6] = dose: 100.0 mg/kg/injection, schedule: Q01DX009 (ip), vehicle: saline with Tween-80
[7] = dose: 200.0 mg/kg/injection, schedule: Q01DX009 (ip), vehicle: saline with Tween-80
[8] = dose: 400.0 mg/kg/injection, schedule: Q01DX009 (ip), vehicle: saline with Tween-80
[9] = dose: 100.0 mg/kg/injection, schedule: Q01DX009 (ip), vehicle: Klucel (hydroxypropylcellulose) (HPC)
[10] = dose: 0.5 mg/kg/injection, schedule: Q01DX009 (ip), vehicle: saline
[11] = dose: 1.0 mg/kg/injection, schedule: Q01DX009 (ip), vehicle: saline
[12] = dose: 2.0 mg/kg/injection, schedule: Q01DX009 (ip), vehicle: saline

CC(=O)O[C@H]1C(=O)O[C@@H]2C[C@H]3C(C)=CC(=O)[C@@H](O)[C@]3(C)[C@H]3[C@@]4(O)OC[C@]32[C@@H]1[C@@H](C)[C@H]4O
T/C (dose: 0.39 mg/kg/injection, schedule: Q01DX009 (ip), vehicle: saline with Tween-80): 101 % of control
T/C (dose: 0.78 mg/kg/injection, schedule: Q01DX009 (ip), vehicle: saline with Tween-80): 105 % of control
T/C (dose: 1.5 mg/kg/injection, schedule: Q01DX009 (ip), vehicle: Klucel (hydroxypropylcellulose) (HPC)): 112 % of control
T/C (dose: 1.5 mg/kg/injection, schedule: Q01DX009 (ip), vehicle: saline): 112 % of control
T/C [1]: 96 % of control
T/C [2]: 107 % of control
T/C [3]: 107 % of control
T/C (dose: 12.0 mg/kg/injection, schedule: Q01DX009 (ip), vehicle: saline): 164 % of control
T/C [4]: 118 % of control

COC1NC(=O)NC(=O)C1=[N+]=[N-] (stereo not drawn)
T/C (dose: 2.0 mg/kg/injection, schedule: Q01DX009 (ip), vehicle: water): 112 % of control

c1ccc(CN=C(c2ccccc2)c2ccccc2)cc1
T/C (dose: 100.0 mg/kg/injection, schedule: Q04DX003 (ip), vehicle: Klucel (hydroxypropylcellulose) (HPC)): 100 % of control
T/C (dose: 200.0 mg/kg/injection, schedule: Q04DX003 (ip), vehicle: Klucel (hydroxypropylcellulose) (HPC)): 95 % of control
T/C (dose: 400.0 mg/kg/injection, schedule: Q04DX003 (ip), vehicle: Klucel (hydroxypropylcellulose) (HPC)): 100 % of control

NC(Cc1ccc(O)cc1)C(=O)N/N=C/c1ccc(N(CCCl)CCCl)cc1 (stereo not drawn)
T/C (dose: 15.0 mg/kg/injection, schedule: Q01DX009 (ip), vehicle: Klucel (hydroxypropylcellulose) (HPC)): 115 % of control
T/C (dose: 30.0 mg/kg/injection, schedule: Q01DX009 (ip), vehicle: Klucel (hydroxypropylcellulose) (HPC)): 120 % of control

CC(=O)Oc1c(Br)cc(Br)cc1-c1ccccc1
T/C [5]: 98 % of control
T/C [6]: 94 % of control
T/C [7]: 98 % of control
T/C [8]: 91 % of control

CC(C)CNN(CC(C)C)C(N)=O
T/C [6]: 111 % of control
T/C [7]: 86 % of control

NC(C(=O)O)c1ccc(CBr)cc1 (stereo not drawn)
T/C (dose: 12.5 mg/kg/injection, schedule: Q01DX009 (ip), vehicle: acid diluted with saline): 152 % of control
T/C (dose: 25.0 mg/kg/injection, schedule: Q01DX009 (ip), vehicle: acid diluted with saline): 157 % of control
T/C (dose: 100.0 mg/kg/injection, schedule: Q01DX009 (ip), vehicle: acid diluted with saline): 152 % of control
T/C (dose: 200.0 mg/kg/injection, schedule: Q01DX009 (ip), vehicle: acid diluted with saline): 157 % of control

CCN(CC)CCOC(=O)C(c1ccccc1)C1CCCCC1 (stereo not drawn)
T/C (dose: 6.25 mg/kg/injection, schedule: Q01DX009 (ip), vehicle: saline): 99 % of control
T/C (dose: 12.5 mg/kg/injection, schedule: Q01DX009 (ip), vehicle: saline): 108 % of control
T/C (dose: 25.0 mg/kg/injection, schedule: Q01DX009 (ip), vehicle: saline): 108 % of control
T/C (dose: 50.0 mg/kg/injection, schedule: Q01DX009 (ip), vehicle: saline): 118 % of control
T/C (dose: 100.0 mg/kg/injection, schedule: Q01DX009 (ip), vehicle: saline): 110 % of control

Cc1cc(O)c(C(C)C)cc1S(=O)(=O)O (tested in a mixture with another compound)
T/C [5]: 98 % of control
T/C [7]: 100 % of control

Cc1cccc(C)c1NC(=O)Nc1cccc2ccccc12
T/C (dose: 100.0 mg/kg/injection, schedule: Q01DX009 (ip), vehicle: gum acacia): 117 % of control
T/C (dose: 200.0 mg/kg/injection, schedule: Q01DX009 (ip), vehicle: gum acacia): 109 % of control
T/C (dose: 400.0 mg/kg/injection, schedule: Q01DX009 (ip), vehicle: gum acacia): 100 % of control

CC(=O)Nc1ccc(NC(=O)c2ccc([As](O)O)cc2)cc1
T/C (dose: 12.5 mg/kg/injection, schedule: Q01DX009 (ip), vehicle: Klucel (hydroxypropylcellulose) (HPC)): 104 % of control
T/C (dose: 25.0 mg/kg/injection, schedule: Q01DX009 (ip), vehicle: Klucel (hydroxypropylcellulose) (HPC)): 105 % of control
T/C (dose: 50.0 mg/kg/injection, schedule: Q01DX009 (ip), vehicle: Klucel (hydroxypropylcellulose) (HPC)): 91 % of control
T/C [9]: 105 % of control

O=C1C(N2CCCC2)=C(N2CC2)C(=O)C(N2CCCC2)=C1N1CC1
T/C (dose: 0.25 mg/kg/injection, schedule: Q01DX009 (ip), vehicle: saline): 100 % of control
T/C [10]: 114 % of control
T/C [11]: 111 % of control
T/C [12]: 118 % of control

O=C(O)/C(Br)=C/c1ccccc1
T/C (dose: 50.0 mg/kg/injection, schedule: Q04DX003 (ip), vehicle: saline with Tween-80): 107 % of control
T/C (dose: 100.0 mg/kg/injection, schedule: Q04DX003 (ip), vehicle: saline with Tween-80): 112 % of control
T/C (dose: 200.0 mg/kg/injection, schedule: Q04DX003 (ip), vehicle: saline with Tween-80): 102 % of control

c1ccc2cc3c(ccc4ccccc43)cc2c1
T/C (dose: 50.0 mg/kg/injection, schedule: Q01DX009 (ip), vehicle: distilled water + Tween-80): 109 % of control
T/C (dose: 100.0 mg/kg/injection, schedule: Q01DX009 (ip), vehicle: distilled water + Tween-80): 103 % of control
T/C (dose: 200.0 mg/kg/injection, schedule: Q01DX009 (ip), vehicle: distilled water + Tween-80): 100 % of control

Cc1ccc(CNc2cccc([N+](=O)[O-])c2)cc1
T/C [9]: 100 % of control
T/C (dose: 200.0 mg/kg/injection, schedule: Q01DX009 (ip), vehicle: Klucel (hydroxypropylcellulose) (HPC)): 97 % of control

CCCCCCCCCCOCCCCCCCCCC
T/C [4]: 95 % of control
T/C (dose: 25.0 mg/kg/injection, schedule: Q01DX009 (ip), vehicle: saline with Tween-80): 95 % of control
T/C [5]: 95 % of control
T/C [7]: 88 % of control
T/C [8]: 88 % of control

CCN1C[C@]2(COC)[C@H](O)C[C@H](OC)[C@]34C1[C@H]([C@H](OC)[C@H]23)[C@]1(OC(C)=O)[C@H]2[C@@H](OC(=O)c3ccccc3)[C@](O)(C[C@H]24)[C@@H](OC)[C@@H]1O
T/C (dose: 15.0 micrograms/kg/injection, schedule: Q01DX009 (ip), vehicle: Klucel (hydroxypropylcellulose) (HPC)): 92 % of control
T/C (dose: 60.0 micrograms/kg/injection, schedule: Q01DX009 (ip), vehicle: Klucel (hydroxypropylcellulose) (HPC)): 89 % of control
T/C (dose: 120.0 micrograms/kg/injection, schedule: Q01DX009 (ip), vehicle: Klucel (hydroxypropylcellulose) (HPC)): 94 % of control

O=S(=O)(O)O.[O]=[V]
T/C [1]: 87 % of control
T/C [2]: 97 % of control
T/C [3]: 94 % of control

CC(=O)O[C@@H]1[C@@H](O)[C@H]2O[C@@H]3C=C(C)CC[C@]3(CO)[C@]1(C)[C@@]21CO1
T/C (dose: 1.25 mg/kg/injection, schedule: Q01DX009 (ip), vehicle: saline with Tween-80): 111 % of control
T/C (dose: 2.5 mg/kg/injection, schedule: Q01DX009 (ip), vehicle: saline with Tween-80): 103 % of control
T/C (dose: 5.0 mg/kg/injection, schedule: Q01DX009 (ip), vehicle: saline with Tween-80): 116 % of control
T/C (dose: 10.0 mg/kg/injection, schedule: Q01DX009 (ip), vehicle: saline with Tween-80): 100 % of control

COc1cccc2c1C(=O)c1c(O)c3c(c(O)c1C2=O)CC(O)(C(C)=O)CC3O (stereo not drawn)
T/C (dose: 0.12 mg/kg/injection, schedule: Q01DX009 (ip), vehicle: saline): 91 % of control
T/C (dose: 0.12 mg/kg/injection, schedule: Q04DX003 (ip), vehicle: saline): 94 % of control
T/C (dose: 0.25 mg/kg/injection, schedule: Q04DX003 (ip), vehicle: saline): 100 % of control
T/C [10]: 86 % of control
T/C (dose: 0.5 mg/kg/injection, schedule: Q04DX003 (ip), vehicle: saline): 105 % of control
T/C [11]: 94 % of control
T/C (dose: 1.0 mg/kg/injection, schedule: Q04DX003 (ip), vehicle: saline): 97 % of control
T/C [12]: 102 % of control
T/C (dose: 2.0 mg/kg/injection, schedule: Q04DX003 (ip), vehicle: saline): 102 % of control
T/C (dose: 4.0 mg/kg/injection, schedule: Q01DX009 (ip), vehicle: saline): 100 % of control
T/C (dose: 4.0 mg/kg/injection, schedule: Q04DX003 (ip), vehicle: saline): 108 % of control
T/C (dose: 8.0 mg/kg/injection, schedule: Q01DX009 (ip), vehicle: saline): 105 % of control
